Among the data in ChEMBL document CHEMBL1201861, “Genomics of Drug Sensitity in Cancer screening data, Wellcome Trust Sanger Institute” are IC50 values, retold here.

Experiment [1] relates to NCI-H1417. In words: cells. Format: functional, cell-based, Homo sapiens. The note with it: Homo sapiens, NCI-H1417.
Description: SANGER: Inhibition of human NCI-H1417 cell growth in a cell viability assay.
Experiment [2] deals with DMS-79. Description: cells. Type of experiment: functional, cell-based, Homo sapiens. The note with it: Homo sapiens, DMS-79.
Description: SANGER: Inhibition of human DMS-79 cell growth in a cell viability assay.
For experiment [3], the system named is MC-CAR. Description: cells. Format: functional, cell-based, Homo sapiens. As to conditions: Homo sapiens, MC-CAR.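 Also: growth inhibition of the human MC-CAR cell line, read out by a cell viability assay.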
Description: SANGER: Inhibition of human MC-CAR cell growth in a cell viability assay.
Experiment [4] concerns LOUCY. Description: cells. Format: functional, cell-based, Homo sapiens. The note with it: Homo sapiens, LOUCY.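 Also: growth inhibition of human LOUCY cells, read out with a cell viability assay.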
Description: SANGER: Inhibition of human LOUCY cell growth in a cell viability assay.
Experiment [5] relates to BL-70. Description: SANGER: Inhibition of human BL-70 cell growth in a cell viability assay. Type of experiment: functional, cell-based. The note with it: Homo sapiens, BL-70.
Experiment [6] deals with TUR. In words: cells. Type of experiment: functional, cell-based, Homo sapiens. As to conditions: Homo sapiens, TUR.
Description: SANGER: Inhibition of human TUR cell growth in a cell viability assay.
The test system of experiment [7] is DG-75. Description: cells. As to conditions: Homo sapiens, DG-75. Format: functional, cell-based, Homo sapiens.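 Also: growth inhibition of DG-75 cells, read out with a cell viability assay.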
Description: SANGER: Inhibition of human DG-75 cell growth in a cell viability assay.
In experiment [8] the test system is NCI-H1522. In words: cells. Type of experiment: functional, cell-based, Homo sapiens. As to conditions: Homo sapiens, NCI-H1522.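 Also: growth inhibition of NCI-H1522 cells, read out with a cell viability assay.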
Description: SANGER: Inhibition of human NCI-H1522 cell growth in a cell viability assay.
Experiment [9] concerns TE-15. In words: cells. Type of experiment: functional, cell-based, Homo sapiens. The note with it: Homo sapiens, TE-15.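 Also: cell viability readout of growth inhibition in TE-15 cells.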
Description: SANGER: Inhibition of human TE-15 cell growth in a cell viability assay.
In experiment [10] the test system is PF-382. Description: cells. The note with it: Homo sapiens, PF-382. Type of experiment: functional, cell-based, Homo sapiens.
Description: SANGER: Inhibition of human PF-382 cell growth in a cell viability assay.
Experiment [11] relates to ST486. Description: SANGER: Inhibition of human ST486 cell growth in a cell viability assay. Type of experiment: functional, cell-based. As to conditions: Homo sapiens, ST486.
The subject of experiment [12] is NCI-H2141. In words: cells. Format: functional, cell-based, Homo sapiens. As to conditions: Homo sapiens, NCI-H2141.
Description: SANGER: Inhibition of human NCI-H2141 cell growth in a cell viability assay.
For experiment [13], the system named is LB373-MEL-D. Description: cells. Type of experiment: functional, cell-based, Homo sapiens. As to conditions: Homo sapiens, LB373-MEL-D.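 Also: growth inhibition of the cell line, read out in a cell viability assay.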
Description: SANGER: Inhibition of human LB373-MEL-D cell growth in a cell viability assay.
The subject of experiment [14] is LC4-1. Description: cells. Type of experiment: functional, cell-based, Homo sapiens. The note with it: Homo sapiens, LC4-1.
Description: SANGER: Inhibition of human LC4-1 cell growth in a cell viability assay.
Experiment [15] has as its system BL-41. In words: cells. Type of experiment: functional, cell-based. The note with it: Homo sapiens.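 Also: growth inhibition of human BL-41 cells, read out with a cell viability assay.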
Description: SANGER: Inhibition of human BL-41 cell growth in a cell viability assay.
Experiment [16] concerns EB2. Description: cells. The note with it: Homo sapiens, EB2. Format: functional, cell-based, Homo sapiens.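 Also: growth inhibition of EB2 cells, read out with a cell viability assay.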
Description: SANGER: Inhibition of human EB2 cell growth in a cell viability assay.

Bounds are passed on as bounds.

With `C=CC(=O)N1CCCC(Nc2nc(Nc3ccc(N(C)C(=O)CC)cc3)nc3[nH]cnc23)C1` (stereo not drawn), the half-inhibitory concentration (IC50) in [1], in experiment [2], in [3], in experiment [4], in experiment [5] and in [6] was more than 10.2 µM throughout. The IC50 is more than 10.2 µM in experiment [7]; more than 10.2 µM in [8]; 1.85 µM in experiment [9]; more than 10.2 µM in experiment [10]; more than 10.2 µM in experiment [11]; more than 10.2 µM in experiment [12]. Further, the concentration for half-maximal inhibition (IC50) in experiment [13], in [14], in experiment [15] and in experiment [16] was more than 10.2 µM throughout.

With `COc1ccc(N(C(=O)Oc2c(C)cccc2C)c2ccnc(Nc3ccc(N4CCN(C)CC4)cc3)n2)c(OC)c1`, the IC50 in experiment [1] is more than 5.12 µM; in experiment [2] it was more than 5.12 µM; in experiment [3] it was more than 5.12 µM; in experiment [4], more than 5.12 µM; in experiment [5], less than 0.02 µM; in experiment [6] it was more than 5.12 µM. The IC50 in experiment [7] was more than 5.12 µM; in experiment [8] it was more than 5.12 µM; in [9] it was 0.243 µM; in [10], 0.708 µM; in [11], more than 5.12 µM; in [12] it was more than 5.12 µM. In addition, the IC50 is more than 5.12 µM in experiment [13], more than 5.12 µM in experiment [14], 1 µM in experiment [15] and more than 5.12 µM in experiment [16].

In the case of `Cc1cc(N2CCOCC2)cc2[nH]c(-c3c(NC[C@@H](O)c4cccc(Cl)c4)cc[nH]c3=O)nc12`, the IC50 in experiment [1] is more than 5.12 µM; in [2] it was more than 5.12 µM; in experiment [3], more than 5.12 µM; in experiment [4], more than 5.12 µM; in experiment [5], 4.8 µM; in experiment [6], more than 5.12 µM. Besides, the IC50 is more than 5.12 µM in experiment [7]; more than 5.12 µM in [8]; 0.813 µM in experiment [9]; more than 5.12 µM in [10]; more than 5.12 µM in [11]; more than 5.12 µM in [12]. Moreover, the IC50 in [13], in [14], in experiment [15] and in experiment [16] was more than 5.12 µM throughout.
